Measurements published in a compilation of properties of binary mixtures (doi:10.1021/jp071051m).

Assay: xn = mol fraction of the nth substance listed
Conditions: 298.15 K, 101 kPa

CCCC[n+]1ccn(C)c1.O=C([O-])C(F)(F)F + CC#N gave an electrical conductivity (x2 = 0) of 0.455 S/m, a viscosity (x2 = 0) of 52.9 mPa·s and an electrical conductivity (x2 = 0.0798) of 0.562 S/m. It also gave a viscosity (x2 = 0.0798) of 42.7 mPa·s, an electrical conductivity (x2 = 0.1769) of 0.699 S/m and a viscosity (x2 = 0.1769) of 31.7 mPa·s. For the same compound, the electrical conductivity (x2 = 0.3539) was 1.05 S/m, the viscosity (x2 = 0.3539) was 17.4 mPa·s and the electrical conductivity (x2 = 0.4443) was 1.32 S/m. The viscosity (x2 = 0.4443) was 12.1 mPa·s, the electrical conductivity (x2 = 0.547) was 1.69 S/m and the viscosity (x2 = 0.547) was 7.61 mPa·s. The electrical conductivity (x2 = 0.6553) was 2.19 S/m, the viscosity (x2 = 0.6553) was 4.38 mPa·s and the electrical conductivity (x2 = 0.7649) was 2.76 S/m. For the same compound, the viscosity (x2 = 0.7649) was 2.27 mPa·s, the electrical conductivity (x2 = 0.8457) was 3.06 S/m and the viscosity (x2 = 0.8457) was 1.19 mPa·s. The electrical conductivity (x2 = 0.8802) was 3.09 S/m and the viscosity (x2 = 0.8802) was 1.09 mPa·s.
CCCC[n+]1ccn(C)c1.F[P-](F)(F)(F)(F)F + CC(C)=O gave an electrical conductivity (x2 = 0) of 0.157 S/m, a viscosity (x2 = 0) of 260 mPa·s and an electrical conductivity (x2 = 0.1006) of 0.256 S/m. The viscosity (x2 = 0.1006) was 148 mPa·s, the electrical conductivity (x2 = 0.1935) was 0.389 S/m and the viscosity (x2 = 0.1935) was 89 mPa·s. The electrical conductivity (x2 = 0.3033) was 0.612 S/m, the viscosity (x2 = 0.3033) was 48.4 mPa·s and the electrical conductivity (x2 = 0.3988) was 0.89 S/m. The viscosity (x2 = 0.3988) was 27.4 mPa·s, the electrical conductivity (x2 = 0.6016) was 1.81 S/m and the viscosity (x2 = 0.6016) was 7.36 mPa·s. It also gave an electrical conductivity (x2 = 0.6992) of 2.38 S/m, a viscosity (x2 = 0.6992) of 3.76 mPa·s and an electrical conductivity (x2 = 0.8433) of 3.11 S/m. The viscosity (x2 = 0.8433) was 1.34 mPa·s, the electrical conductivity (x2 = 0.8853) was 3.12 S/m and the viscosity (x2 = 0.8853) was 1.02 mPa·s.
ClCCl + CCCC[n+]1ccn(C)c1.F[P-](F)(F)(F)(F)F gave an electrical conductivity (x1 = 0.0753) of 0.213 S/m, a viscosity (x1 = 0.0753) of 180 mPa·s and an electrical conductivity (x1 = 0.163) of 0.294 S/m. It also gave a viscosity (x1 = 0.163) of 129 mPa·s, an electrical conductivity (x1 = 0.3361) of 0.533 S/m and a viscosity (x1 = 0.3361) of 58.2 mPa·s. For the same compound, the electrical conductivity (x1 = 0.5384) was 0.97 S/m, the viscosity (x1 = 0.5384) was 18.7 mPa·s and the electrical conductivity (x1 = 0.6462) was 1.24 S/m. For the same compound, the viscosity (x1 = 0.6462) was 9.5 mPa·s, the electrical conductivity (x1 = 0.738) was 1.43 S/m and the viscosity (x1 = 0.738) was 5 mPa·s. The electrical conductivity (x1 = 0.8242) was 1.42 S/m, the viscosity (x1 = 0.8242) was 2.57 mPa·s and the electrical conductivity (x1 = 0.8678) was 1.3 S/m. For the same compound, the viscosity (x1 = 0.8678) was 1.82 mPa·s.
In the case of CCCC[n+]1ccn(C)c1.F[P-](F)(F)(F)(F)F + CCOC(C)=O, the electrical conductivity (x2 = 0) is reported as 0.157 S/m, the viscosity (x2 = 0) is reported as 260 mPa·s and the electrical conductivity (x2 = 0.0883) is reported as 0.229 S/m. It also gave a viscosity (x2 = 0.0883) of 167 mPa·s, an electrical conductivity (x2 = 0.1793) of 0.326 S/m and a viscosity (x2 = 0.1793) of 101 mPa·s. It also gave an electrical conductivity (x2 = 0.4691) of 0.771 S/m, a viscosity (x2 = 0.4691) of 21 mPa·s and an electrical conductivity (x2 = 0.5703) of 0.96 S/m. For the same compound, the viscosity (x2 = 0.5703) was 11.3 mPa·s, the electrical conductivity (x2 = 0.6738) was 1.1 S/m and the viscosity (x2 = 0.6738) was 5.69 mPa·s. The electrical conductivity (x2 = 0.8339) was 0.96 S/m and the viscosity (x2 = 0.8339) was 2.07 mPa·s.
Compound CCCC[n+]1ccn(C)c1.O=C([O-])C(F)(F)F + ClC(Cl)Cl has an electrical conductivity (x2 = 0) of 0.455 S/m, a viscosity (x2 = 0) of 52.9 mPa·s and an electrical conductivity (x2 = 0.0918) of 0.507 S/m. The viscosity (x2 = 0.0918) was 46.4 mPa·s, the electrical conductivity (x2 = 0.1815) was 0.558 S/m and the viscosity (x2 = 0.1815) was 40.4 mPa·s. The electrical conductivity (x2 = 0.2793) was 0.618 S/m, the viscosity (x2 = 0.2793) was 33.7 mPa·s and the electrical conductivity (x2 = 0.3861) was 0.692 S/m. It also gave a viscosity (x2 = 0.3861) of 25.9 mPa·s, an electrical conductivity (x2 = 0.482) of 0.766 S/m and a viscosity (x2 = 0.482) of 19.3 mPa·s. For the same compound, the electrical conductivity (x2 = 0.5804) was 0.85 S/m, the viscosity (x2 = 0.5804) was 13 mPa·s and the electrical conductivity (x2 = 0.6467) was 0.89 S/m. The viscosity (x2 = 0.6467) was 9.7 mPa·s, the electrical conductivity (x2 = 0.6812) was 0.9 S/m and the viscosity (x2 = 0.6812) was 7.85 mPa·s. The electrical conductivity (x2 = 0.729) was 0.89 S/m, the viscosity (x2 = 0.729) was 6.06 mPa·s and the electrical conductivity (x2 = 0.7847) was 0.826 S/m. It also gave a viscosity (x2 = 0.7847) of 4.02 mPa·s, an electrical conductivity (x2 = 0.8677) of 0.603 S/m and a viscosity (x2 = 0.8677) of 2.02 mPa·s.
With CCCC[n+]1ccn(C)c1.F[P-](F)(F)(F)(F)F + ClCCl the electrical conductivity (x2 = 0) was 0.157 S/m and the viscosity (x2 = 0) was 260 mPa·s.
In the case of CCCC[n+]1ccn(C)c1.O=C([O-])C(F)(F)F + O, the electrical conductivity (x2 = 0) is reported as 0.455 S/m, the viscosity (x2 = 0) is reported as 52.9 mPa·s and the electrical conductivity (x2 = 0.1093) is reported as 0.543 S/m. It also gave a viscosity (x2 = 0.1093) of 46.3 mPa·s, an electrical conductivity (x2 = 0.197) of 0.619 S/m and a viscosity (x2 = 0.197) of 40.9 mPa·s. For the same compound, the electrical conductivity (x2 = 0.2888) was 0.713 S/m, the viscosity (x2 = 0.2888) was 35.5 mPa·s and the electrical conductivity (x2 = 0.396) was 0.88 S/m. The viscosity (x2 = 0.396) was 29.2 mPa·s, the electrical conductivity (x2 = 0.4921) was 1.07 S/m and the viscosity (x2 = 0.4921) was 23.8 mPa·s. It also gave an electrical conductivity (x2 = 0.5897) of 1.34 S/m, a viscosity (x2 = 0.5897) of 18.7 mPa·s and an electrical conductivity (x2 = 0.6918) of 1.72 S/m. For the same compound, the viscosity (x2 = 0.6918) was 13.6 mPa·s, the electrical conductivity (x2 = 0.7927) was 2.38 S/m and the viscosity (x2 = 0.7927) was 9 mPa·s. For the same compound, the electrical conductivity (x2 = 0.884) was 3.14 S/m, the viscosity (x2 = 0.884) was 5.13 mPa·s and the electrical conductivity (x2 = 0.9195) was 3.34 S/m. The viscosity (x2 = 0.9195) was 3.67 mPa·s.
For CCCC[n+]1ccn(C)c1.F[P-](F)(F)(F)(F)F + c1ccncc1, the electrical conductivity (x2 = 0) was 0.157 S/m, the viscosity (x2 = 0) was 260 mPa·s and the electrical conductivity (x2 = 0.0964) was 0.222 S/m. It also gave a viscosity (x2 = 0.0964) of 161 mPa·s, an electrical conductivity (x2 = 0.1929) of 0.308 S/m and a viscosity (x2 = 0.1929) of 102 mPa·s. The electrical conductivity (x2 = 0.291) was 0.435 S/m, the viscosity (x2 = 0.291) was 63.4 mPa·s and the electrical conductivity (x2 = 0.3899) was 0.599 S/m. The viscosity (x2 = 0.3899) was 38 mPa·s, the electrical conductivity (x2 = 0.5922) was 1.11 S/m and the viscosity (x2 = 0.5922) was 12.1 mPa·s. For the same compound, the electrical conductivity (x2 = 0.6978) was 1.43 S/m, the viscosity (x2 = 0.6978) was 6.35 mPa·s and the electrical conductivity (x2 = 0.7695) was 1.63 S/m. The viscosity (x2 = 0.7695) was 3.73 mPa·s, the electrical conductivity (x2 = 0.8372) was 1.73 S/m and the viscosity (x2 = 0.8372) was 2.42 mPa·s. For the same compound, the electrical conductivity (x2 = 0.8781) was 1.68 S/m and the viscosity (x2 = 0.8781) was 1.94 mPa·s.
